Measurements reported in ChEMBL document CHEMBL1127116, “Synthesis and structure-activity relationships of a novel series of non-peptide AT2-selective angiotensin II receptor antagonists” (Bioorg Med Chem Lett, 1993).
pIC50: −log10 of the molar value.

Key:
[1] = biological target: T1, Type-1 angiotensin II receptor (Oryctolagus cuniculus, UniProt P34976); assay: Inhibition of Angiotensin II receptor, type 1 in rabbit aorta using [125I-Sar1,Ile8] angiotensin II binding assay; format: tissue-based
T1 sequence (P34976 whole entry): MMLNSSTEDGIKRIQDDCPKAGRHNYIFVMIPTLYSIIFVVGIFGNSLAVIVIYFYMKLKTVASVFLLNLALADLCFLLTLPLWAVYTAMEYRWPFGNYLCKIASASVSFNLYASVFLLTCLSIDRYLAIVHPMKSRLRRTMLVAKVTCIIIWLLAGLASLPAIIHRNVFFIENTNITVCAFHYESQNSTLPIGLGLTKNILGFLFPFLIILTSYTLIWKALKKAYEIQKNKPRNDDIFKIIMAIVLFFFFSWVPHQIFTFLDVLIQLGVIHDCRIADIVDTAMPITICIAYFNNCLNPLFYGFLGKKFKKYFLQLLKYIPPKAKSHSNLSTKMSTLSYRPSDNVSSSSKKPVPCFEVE

[2] = biological target: T2, Type-2 angiotensin II receptor (Rattus norvegicus, UniProt P35351); assay: Inhibition of Angiotensin II receptor, type 2 in rat midbrain using [125I]-Sar1,Ile8 angiotensin II binding assay
T2 sequence (P35351 whole entry): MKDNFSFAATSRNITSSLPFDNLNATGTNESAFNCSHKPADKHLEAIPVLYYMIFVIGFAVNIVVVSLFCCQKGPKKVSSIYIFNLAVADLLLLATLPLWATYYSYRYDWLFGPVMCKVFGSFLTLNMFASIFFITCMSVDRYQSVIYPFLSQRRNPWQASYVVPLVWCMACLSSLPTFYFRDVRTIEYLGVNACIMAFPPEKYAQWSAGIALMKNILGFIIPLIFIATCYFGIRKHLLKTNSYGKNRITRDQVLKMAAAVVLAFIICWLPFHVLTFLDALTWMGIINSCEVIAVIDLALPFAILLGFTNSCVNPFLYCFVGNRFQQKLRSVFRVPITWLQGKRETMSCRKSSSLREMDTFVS

[3] = biological target: T1, Type-1 angiotensin II receptor; assay: Inhibition of angiotensin Angiotensin II receptor, type 1 in rabbit aorta using [125I-Sar1,Ile8] angiotensin II binding assay; format: tissue-based
[4] = biological target: T2, Type-2 angiotensin II receptor; assay: Compound was evaluated for inhibition of Angiotensin II receptor, type 2 in rat midbrain AT2 assay; format: tissue-based
[5] = Half life in rats; format: ADME, organism-based; conditions: rat, in vivo
[6] = Oral bioavailability in rat; format: ADME, organism-based; conditions: in vivo

Structure (SMILES): CCCCCN(CCCCC)C(=O)N1CCN(C(=O)N(c2ccccc2)c2ccccc2)[C@H](C(=O)OC)C1
- pIC50 [1]: 4.68
- pIC50 [2]: 7.92

Structure (SMILES): CCCCCN(CCCCC)C(=O)N1CCN(C(=O)N(c2ccccc2)c2cccc(Cl)c2)[C@H](C(=O)O)C1
- pIC50 [2]: 9.40
- pIC50 [3]: 5.29

Structure (SMILES): CCCCCN(CCCCC)C(=O)N1CCN(C(=O)C(c2ccccc2)c2ccccc2)C(C(=O)O)C1 (stereo unspecified)
- pIC50 [1]: < 4.00
- pIC50 [2]: 8.96

Structure (SMILES): CCCCCN(CCCCC)C(=O)N1CCN(C(=O)N(c2ccccc2)c2ccccc2)[C@H](CO)C1
- pIC50 [1]: < 5.00
- pIC50 [2]: 7.52

Structure (SMILES): CCCCCN(CCCCC)C(=O)N1CCN(C(=O)N(c2ccccc2)c2ccccc2)[C@H](C(=O)O)C1
- pIC50 [2]: 8.85
- pIC50 [3]: 4.41

Structure (SMILES): CCCCCN(CCCCC)C(=O)N1CCN(C(=O)N(c2ccccc2)c2ccc(Br)cc2)[C@H](C(=O)O)C1
- pIC50 [2]: 8.57
- pIC50 [3]: 5.27

Structure (SMILES): CCCCCN(CCCCC)C(=O)N1CCN(C(=O)N(c2ccccc2)c2ccc(O)cc2)[C@H](C(=O)O)C1
- pIC50 [2]: 6.64
- pIC50 [3]: 5.00

Structure (SMILES): CC1CN(C(=O)N(c2ccccc2)c2ccccc2)CCN1C(=O)N(c1ccccc1)c1ccccc1 (stereo unspecified)
- pIC50 [2]: 7.82
- pIC50 [3]: < 4.00

Structure (SMILES): CCCCCN(CCCCC)C(=O)N1CCN(C(=O)N(c2ccccc2)c2ccc(I)cc2)[C@H](C(=O)O)C1
- pIC50 [2]: 8.15
- pIC50 [3]: 5.07

Structure (SMILES): CN(C(=O)N1CCN(C(=O)N(c2ccccc2)c2ccccc2)[C@H](C(=O)O)C1)c1ccccc1
- pIC50 [1]: < 5.00
- pIC50 [2]: 6.77

Structure (SMILES): CCCCCN(CCCCC)C(=O)N1CCN(C(=O)N(c2ccccc2)c2ccc(C(=O)O)cc2)[C@H](C(=O)O)C1
- pIC50 [2]: 6.74
- pIC50 [3]: 5.85

Structure (SMILES): CCCCCN(CCCCC)C(=O)N1CCN(C(=O)N(c2ccccc2)c2ccccc2)CC1
- pIC50 [2]: 7.15
- pIC50 [3]: 4.90

Structure (SMILES): CCCCCN(CCCCC)C(=O)N1CCN(C(=O)N(c2ccccc2)c2ccccc2)C[C@H]1C(=O)O
- pIC50 [1]: 4.60
- pIC50 [2]: 7.64

Structure (SMILES): O=C(N1CCN(C(=O)N(c2ccccc2)c2ccccc2)CC1)N(c1ccccc1)c1ccccc1
- pIC50 [2]: 7.43
- pIC50 [3]: < 4.00

Structure (SMILES): CCCCCN(CCCCC)C(=O)N1CCN(C(=O)N(c2ccccc2)c2ccc(C(=O)OCC)cc2)[C@H](C(=O)O)C1
- pIC50 [2]: 7.46
- pIC50 [3]: < 5.00

Structure (SMILES): CCCCCN(CCCCC)C(=O)N1CCN(C(=O)N(CCCCC)CCCCC)[C@H](C(=O)O)C1
- pIC50 [1]: < 4.52
- pIC50 [2]: 7.09

Structure (SMILES): COc1ccc(Cn2cnc3c2C[C@@H](C(=O)O)N(C(=O)C(c2ccccc2)c2ccccc2)C3)cc1C
- pIC50 [4]: 7.42

Structure (SMILES): CC1CN(C(=O)N(c2ccccc2)c2ccccc2)C(C)CN1C(=O)N(c1ccccc1)c1ccccc1 (stereo unspecified)
- pIC50 [2]: 8.00
- pIC50 [3]: < 4.00

Structure (SMILES): O=C(O)[C@@H]1CN(C(=O)N(c2ccccc2)c2ccccc2)CCN1C(=O)N(c1ccccc1)c1ccccc1
- half-life [5]: > 6 h
- bioavailability [6]: 21%
- pIC50 [1]: < 4.00

Structure (SMILES): CCCCCN(CCCCC)C(=O)N1CCN(C(=O)N(c2ccccc2)c2ccccc2)C(C(=O)O)C1 (stereo unspecified)
- pIC50 [1]: < 4.52
- pIC50 [2]: 8.77

Structure (SMILES): CCCCCN(CCCCC)C(=O)N1CCN(C(=O)N(c2ccccc2)c2cccc(C)c2)[C@H](C(=O)O)C1
- pIC50 [2]: 9.15
- pIC50 [3]: 5.00

Structure (SMILES): CCCCCN(CCCCC)C(=O)N1CCN(C(=O)N(c2ccccc2)c2ccccc2)[C@H](CCO)C1
- pIC50 [2]: 7.82
- pIC50 [3]: < 5.00

Structure (SMILES): CCCCCN(CCCCC)C(=O)N1CCN(C(=O)N(c2ccccc2)c2ccccc2)[C@@H](C(=O)O)C1
- pIC50 [1]: < 5.00
- pIC50 [2]: 8.35

Structure (SMILES): CCCCCN(CCCCC)C(=O)N1CCN(C(=O)N(c2ccccc2)c2cccc(Br)c2)[C@H](C(=O)O)C1
- pIC50 [2]: 9.22
- pIC50 [3]: 4.23

Structure (SMILES): CCCCCN(C)C(=O)N1CCN(C(=O)N(c2ccccc2)c2ccccc2)[C@H](C(=O)O)C1
- pIC50 [1]: < 4.52
- pIC50 [2]: 7.82

Structure (SMILES): CCCCCN(C(=O)N1CCN(C(=O)N(c2ccccc2)c2ccccc2)C[C@H]1C(=O)O)c1ccccc1
- pIC50 [1]: 4.35
- pIC50 [2]: 7.70

Structure (SMILES): CC(C)N(C(=O)N1CCN(C(=O)N(c2ccccc2)c2ccccc2)[C@H](C(=O)O)C1)C(C)C
- pIC50 [1]: < 5.00
- pIC50 [2]: 7.40

Structure (SMILES): CCCCCN(CCCCC)C(=O)N1CCN(C(=O)N(c2ccccc2)c2cccc(OC)c2)[C@H](C(=O)O)C1
- pIC50 [2]: 8.11
- pIC50 [3]: < 5.00
